Experimental data published in PubChem BioAssay AID192 (DTP/NCI, 2004).
Values joined by “and” are separate entries in the source; they are usually repeats but may differ in a detail not shown here. Equal entries are not always repeated. Inconclusive results and toxic doses are left out.

System: BDF1 mice, B16 melanoma ip, median survival T/C
Test: NCI In Vivo Anticancer Drug Screen. Data for tumor model B16 Melanoma (intraperitoneal) in B6D2F1 (BDF1) mice
Details: endpoint: median survival time, higher = longer survival
How it was run: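 Transplantable tumor model; survival or tumor size measured; reported as T/C, treated over vehicle control.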

[1] = dose: 100.0 mg/kg/injection, schedule: Q01DX009 (ip), vehicle: Klucel (hydroxypropylcellulose) (HPC)
[2] = dose: 1.0 mg/kg/injection, schedule: Q01DX009 (ip), vehicle: saline with Tween-80
[3] = dose: 2.0 mg/kg/injection, schedule: Q01DX009 (ip), vehicle: saline with Tween-80
[4] = dose: 50.0 mg/kg/injection, schedule: Q01DX009 (ip), vehicle: saline
[5] = dose: 100.0 mg/kg/injection, schedule: Q01DX009 (ip), vehicle: saline
[6] = dose: 200.0 mg/kg/injection, schedule: Q01DX009 (ip), vehicle: Klucel (hydroxypropylcellulose) (HPC)
[7] = dose: 400.0 mg/kg/injection, schedule: Q01DX009 (ip), vehicle: Klucel (hydroxypropylcellulose) (HPC)
[8] = dose: 6.25 mg/kg/injection, schedule: Q01DX009 (ip), vehicle: saline with Tween-80
[9] = dose: 12.5 mg/kg/injection, schedule: Q01DX009 (ip), vehicle: saline with Tween-80
[10] = dose: 25.0 mg/kg/injection, schedule: Q01DX009 (ip), vehicle: saline with Tween-80
[11] = dose: 100.0 mg/kg/injection, schedule: Q01DX009 (ip), vehicle: saline with Tween-80
[12] = dose: 400.0 mg/kg/injection, schedule: Q01DX009 (ip), vehicle: saline with Tween-80
[13] = dose: 50.0 mg/kg/injection, schedule: Q01DX009 (ip), vehicle: saline with Tween-80
[14] = dose: 100.0 mg/kg/injection, schedule: Q04DX003 (ip), vehicle: Klucel (hydroxypropylcellulose) (HPC)
[15] = dose: 200.0 mg/kg/injection, schedule: Q04DX003 (ip), vehicle: Klucel (hydroxypropylcellulose) (HPC)
[16] = dose: 75.0 mg/kg/injection, schedule: Q01DX009 (ip), vehicle: Klucel (hydroxypropylcellulose) (HPC)
[17] = dose: 150.0 mg/kg/injection, schedule: Q01DX009 (ip), vehicle: Klucel (hydroxypropylcellulose) (HPC)

SMILES: C=C1C(C)C2C(Cc3ccccc3)NC(=O)C23C(OC(C)=O)C=CC(C)(O)C(=O)C(C)C/C=C/C3C1O (stereo unspecified)
- T/C (dose: 0.63 mg/kg/injection, schedule: Q01DX009 (ip), vehicle: Klucel (hydroxypropylcellulose) (HPC)): 103 % of control
- T/C (dose: 1.25 mg/kg/injection, schedule: Q01DX009 (ip), vehicle: Klucel (hydroxypropylcellulose) (HPC)): 94 % of control and 114 % of control
- T/C (dose: 2.5 mg/kg/injection, schedule: Q01DX009 (ip), vehicle: Klucel (hydroxypropylcellulose) (HPC)): 100 % of control and 114 % of control
- T/C (dose: 5.0 mg/kg/injection, schedule: Q01DX009 (ip), vehicle: Klucel (hydroxypropylcellulose) (HPC)): 108 % of control and 112 % of control

SMILES: COc1cccc2c1C(=O)c1c(O)c3c(c(O)c1C2=O)CC(O)(/C(C)=N/NC(=O)CCCCC(=O)N/N=C(\C)C1(O)Cc2c(O)c4c(c(O)c2C(OC2CC(N)C(O)C(C)O2)C1)C(=O)c1c(OC)cccc1C4=O)CC3OC1CC(N)C(O)C(C)O1 (stereo unspecified)
- T/C (dose: 0.38 mg/kg/injection, schedule: Q01DX009 (ip), vehicle: water): 114 % of control
- T/C (dose: 1.5 mg/kg/injection, schedule: Q01DX009 (ip), vehicle: water): 177 % of control
- T/C (dose: 3.0 mg/kg/injection, schedule: Q01DX009 (ip), vehicle: water): 295 % of control
- T/C (dose: 6.0 mg/kg/injection, schedule: Q01DX009 (ip), vehicle: water): 208 % of control

SMILES: CSCS(=O)C[C@H](CO)NC(=O)/C=C/c1c(C)[nH]c(=O)[nH]c1=O (stereo partly specified)
- T/C (dose: 0.06 mg/kg/injection, schedule: Q01DX009 (ip), vehicle: Klucel (hydroxypropylcellulose) (HPC)): 95 % of control
- T/C (dose: 0.08 mg/kg/injection, schedule: Q01DX009 (ip), vehicle: water): 99 % of control
- T/C (dose: 0.15 mg/kg/injection, schedule: Q01DX009 (ip), vehicle: water): 105 % of control
- T/C (dose: 0.3 mg/kg/injection, schedule: Q01DX009 (ip), vehicle: water): 108 % of control
- T/C (dose: 0.6 mg/kg/injection, schedule: Q01DX009 (ip), vehicle: water): 91 % of control
- T/C (dose: 0.98 mg/kg/injection, schedule: Q04DX003 (ip), vehicle: saline): 94 % of control
- T/C (dose: 1.4 mg/kg/injection, schedule: Q04DX003 (ip), vehicle: saline): 113 % of control
- T/C (dose: 2.0 mg/kg/injection, schedule: Q04DX003 (ip), vehicle: saline): 101 % of control

SMILES: O=C1OCCN1/N=C/c1ccc([N+](=O)[O-])o1
- T/C [1]: 100 % of control

SMILES: CCOC(=O)C(CC(C)C)NC(=O)C(Cc1ccc(N(CCCl)CCCl)cc1)NC(C)=O (stereo unspecified)
- T/C [2]: 106 % of control
- T/C [3]: 113 % of control
- T/C (dose: 4.0 mg/kg/injection, schedule: Q01DX009 (ip), vehicle: saline with Tween-80): 106 % of control
- T/C (dose: 8.0 mg/kg/injection, schedule: Q01DX009 (ip), vehicle: saline with Tween-80): 119 % of control
- T/C (dose: 8.0 mg/kg/injection, schedule: Q01DX009 (ip), vehicle: saline): 105 % of control
- T/C (dose: 16.0 mg/kg/injection, schedule: Q01DX009 (ip), vehicle: saline): 116 % of control

SMILES: CCCC1(CCC)CN(CO)C1=O
- T/C (dose: 12.5 mg/kg/injection, schedule: Q01DX009 (ip), vehicle: saline): 100 % of control
- T/C (dose: 25.0 mg/kg/injection, schedule: Q01DX009 (ip), vehicle: saline): 100 % of control
- T/C [4]: 106 % of control
- T/C [5]: 111 % of control
- T/C (dose: 200.0 mg/kg/injection, schedule: Q04DX003 (ip), vehicle: saline): 91 % of control

SMILES: Nc1cccc2c1C(=O)c1cccc(NC(=O)c3ccccc3)c1C2=O
- T/C [1]: 90 % of control
- T/C [6]: 106 % of control
- T/C [7]: 90 % of control

SMILES: c1ccc(-c2csc3c4ccccc4c4ccccc4[n+]23)cc1
- T/C (dose: 0.5 mg/kg/injection, schedule: Q01DX009 (ip), vehicle: saline with Tween-80): 95 % of control
- T/C [2]: 95 % of control
- T/C [3]: 93 % of control

SMILES: CC(C)CN(CC(C)C)c1ccc([N+](=O)[O-])cc1[N+](=O)[O-]
- T/C [8]: 105 % of control
- T/C [9]: 107 % of control
- T/C [10]: 87 % of control and 114 % of control
- T/C [11]: 105 % of control
- T/C [12]: 86 % of control

SMILES: CC(C)=CC1C(C(=O)OCc2ccc(C)cc2C)C1(C)C (stereo unspecified)
- T/C [8]: 99 % of control
- T/C [9]: 104 % of control
- T/C [10]: 110 % of control
- T/C [13]: 103 % of control

SMILES: CC(N)CN(C)C (stereo unspecified)
- T/C [4]: 101 % of control
- T/C [5]: 102 % of control
- T/C (dose: 200.0 mg/kg/injection, schedule: Q01DX009 (ip), vehicle: saline): 93 % of control

SMILES: CCOC(=O)NC(CC)CO (stereo unspecified)
- T/C [1]: 100 % of control
- T/C [14]: 90 % of control
- T/C [6]: 97 % of control
- T/C [15]: 100 % of control
- T/C [7]: 102 % of control
- T/C (dose: 400.0 mg/kg/injection, schedule: Q04DX003 (ip), vehicle: Klucel (hydroxypropylcellulose) (HPC)): 95 % of control

SMILES: NCC(=O)NCC(=O)NC(Cc1ccc(O)cc1)C(=O)O (stereo unspecified)
- T/C [13]: 104 % of control
- T/C [11]: 94 % of control
- T/C (dose: 200.0 mg/kg/injection, schedule: Q01DX009 (ip), vehicle: saline with Tween-80): 102 % of control
- T/C [12]: 95 % of control

SMILES: CCCCCCCCN(C)/N=N/c1nc[nH]c1C(N)=O
- T/C (dose: 37.5 mg/kg/injection, schedule: Q01DX009 (ip), vehicle: saline with Tween-80): 121 % of control
- T/C (dose: 75.0 mg/kg/injection, schedule: Q01DX009 (ip), vehicle: saline with Tween-80): 123 % of control

SMILES: O=[N+]([O-])c1ccc(S(=O)(=O)N/N=C\c2ccc(Cl)c(Cl)c2)cc1
- T/C [9]: 109 % of control
- T/C [10]: 114 % of control
- T/C [13]: 112 % of control

SMILES: N#CCCN(CCC#N)c1ccc(C=O)cc1
- T/C [1]: 104 % of control
- T/C [6]: 98 % of control
- T/C [7]: 102 % of control

SMILES: CCCCCC#CC(=O)O
- T/C [16]: 95 % of control
- T/C [17]: 86 % of control

SMILES: CC(NC(=O)OCc1ccccc1)C(=O)O (stereo unspecified)
- T/C (dose: 3.12 mg/kg/injection, schedule: Q01DX009 (ip), vehicle: Klucel (hydroxypropylcellulose) (HPC)): 97 % of control
- T/C (dose: 6.25 mg/kg/injection, schedule: Q01DX009 (ip), vehicle: Klucel (hydroxypropylcellulose) (HPC)): 88 % of control
- T/C (dose: 12.5 mg/kg/injection, schedule: Q01DX009 (ip), vehicle: Klucel (hydroxypropylcellulose) (HPC)): 94 % of control
- T/C (dose: 25.0 mg/kg/injection, schedule: Q01DX009 (ip), vehicle: Klucel (hydroxypropylcellulose) (HPC)): 88 % of control
- T/C [14]: 88 % of control

SMILES: N#CC(Cc1ccccc1Cl)(Cc1ccccc1Cl)c1ccccc1
- T/C [1]: 100 % of control
- T/C [6]: 105 % of control
- T/C [7]: 105 % of control

SMILES: O[C@H](CN1CC1)[C@@H](O)CN1CC1
- T/C (dose: 0.13 mg/kg/injection, schedule: Q01DX009 (ip), vehicle: saline): 117 % of control
- T/C (dose: 0.25 mg/kg/injection, schedule: Q01DX009 (ip), vehicle: saline): 151 % of control
- T/C (dose: 0.5 mg/kg/injection, schedule: Q01DX009 (ip), vehicle: saline): 166 % of control

SMILES: C#CCOCC1CO1 (stereo unspecified)
- T/C [13]: 97 % of control
- T/C [11]: 91 % of control

SMILES: Cc1cccc2nc(-c3ccccc3)ccc12
- T/C (dose: 12.5 mg/kg/injection, schedule: Q04DX003 (ip), vehicle: saline): 107 % of control
- T/C (dose: 25.0 mg/kg/injection, schedule: Q04DX003 (ip), vehicle: saline): 105 % of control

SMILES: CCCCCCCCOc1ccc(C(=O)c2ccccc2)c(O)c1
- T/C (dose: 6.0 mg/kg/injection, schedule: Q01DX009 (ip), vehicle: Klucel (hydroxypropylcellulose) (HPC)): 92 % of control
- T/C [14]: 91 % of control
- T/C [15]: 93 % of control

SMILES: CNC(=O)OCC(Cl)(Cl)Cl
- T/C [16]: 102 % of control
- T/C [17]: 114 % of control
- T/C (dose: 300.0 mg/kg/injection, schedule: Q01DX009 (ip), vehicle: Klucel (hydroxypropylcellulose) (HPC)): 102 % of control

SMILES: C/C=C(\CC)C(=O)NC(N)=O
- T/C (dose: 12.5 mg/kg/injection, schedule: Q04DX003 (ip), vehicle: Klucel (hydroxypropylcellulose) (HPC)): 93 % of control
- T/C (dose: 25.0 mg/kg/injection, schedule: Q04DX003 (ip), vehicle: Klucel (hydroxypropylcellulose) (HPC)): 100 % of control
- T/C (dose: 50.0 mg/kg/injection, schedule: Q04DX003 (ip), vehicle: Klucel (hydroxypropylcellulose) (HPC)): 93 % of control
- T/C [15]: 95 % of control
